PMC6502695 (Natural product research, 2018)

Assays:
Type in all cases: in vitro ADME
[1] = biological target: human SULT 1A2 (Homo sapiens, UniProt P50226); assay: Sulfating activity of purified human SULT1A2; conditions: substrate 10 μM, mean ± SD, three experiments
[2] = Sulfating activity of human small intestine cytosol; conditions: mean ± SD, three experiments
[3] = Sulfating activity of human liver cytosol; conditions: mean ± SD, three experiments
[4] = biological target: human SULT 1A1 (Homo sapiens, UniProt P50225); assay: Sulfating activity of purified human SULT1A1; conditions: substrate 10 μM, mean ± SD, three experiments
[5] = biological target: human SULT 1A3 (Homo sapiens, UniProt P0DMM9); assay: Sulfating activity of purified human SULT1A3
[6] = biological target: human SULT 1C4 (Homo sapiens, UniProt O75897); assay: Sulfating activity of purified human SULT1C4; conditions: substrate 10 μM, mean ± SD, three experiments
[7] = SULT 1A3, substrate 10 μM, mean ± SD, three experiments

Chain of human SULT 1A1 (P50225 whole entry): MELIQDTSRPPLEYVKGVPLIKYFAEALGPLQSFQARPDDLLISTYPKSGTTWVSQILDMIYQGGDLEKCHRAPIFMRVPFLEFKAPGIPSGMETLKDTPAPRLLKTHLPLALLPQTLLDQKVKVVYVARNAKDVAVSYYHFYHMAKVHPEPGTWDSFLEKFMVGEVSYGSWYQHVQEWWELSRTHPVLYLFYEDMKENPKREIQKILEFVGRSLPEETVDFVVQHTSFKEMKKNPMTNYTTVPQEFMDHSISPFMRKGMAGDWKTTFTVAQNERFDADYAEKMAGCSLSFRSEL
Chain of human SULT 1A2 (P50226 whole entry): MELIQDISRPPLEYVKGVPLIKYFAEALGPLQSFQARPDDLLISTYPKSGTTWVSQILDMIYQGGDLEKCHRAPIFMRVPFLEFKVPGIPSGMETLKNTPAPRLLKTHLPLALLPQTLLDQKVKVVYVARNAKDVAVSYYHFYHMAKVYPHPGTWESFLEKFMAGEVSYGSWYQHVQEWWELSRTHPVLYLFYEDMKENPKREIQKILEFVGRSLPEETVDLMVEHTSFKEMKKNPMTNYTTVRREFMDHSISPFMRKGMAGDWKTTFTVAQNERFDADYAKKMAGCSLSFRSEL
Chain of human SULT 1C4 (O75897 whole entry): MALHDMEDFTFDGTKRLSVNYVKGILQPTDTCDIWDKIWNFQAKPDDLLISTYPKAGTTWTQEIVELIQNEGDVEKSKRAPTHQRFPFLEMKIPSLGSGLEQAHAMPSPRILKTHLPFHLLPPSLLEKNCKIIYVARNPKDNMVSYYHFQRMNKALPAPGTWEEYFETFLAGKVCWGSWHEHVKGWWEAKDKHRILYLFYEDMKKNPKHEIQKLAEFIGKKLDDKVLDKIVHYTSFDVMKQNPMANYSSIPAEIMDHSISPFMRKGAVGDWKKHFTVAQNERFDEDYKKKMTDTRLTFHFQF
Chain of human SULT 1A3 (P0DMM9 whole entry): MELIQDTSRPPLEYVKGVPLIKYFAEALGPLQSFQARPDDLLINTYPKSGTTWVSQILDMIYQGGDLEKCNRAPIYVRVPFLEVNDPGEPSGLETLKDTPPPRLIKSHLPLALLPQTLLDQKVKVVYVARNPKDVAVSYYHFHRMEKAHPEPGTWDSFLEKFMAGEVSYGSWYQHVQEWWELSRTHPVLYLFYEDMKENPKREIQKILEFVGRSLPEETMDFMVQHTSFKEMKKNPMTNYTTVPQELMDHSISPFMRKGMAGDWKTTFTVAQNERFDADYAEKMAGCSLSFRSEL

| Specific Activity (nmol substrate sulfated/min/mg purified enzyme) ([5]; human, 10 μM) | SMILES | Specific Activity (nmol substrate sulfated/min/mg purified enzyme) [1] | Specific Activity (pmol substrate sulfated/min/mg protein) ([2]; substrate 10 μM) | Specific Activity (pmol substrate sulfated/min/mg protein) ([2]; substrate 50 μM) | Specific Activity (pmol substrate sulfated/min/mg protein) ([3]; substrate 10 μM) | Specific Activity (pmol substrate sulfated/min/mg protein) ([3]; substrate 50 μM) | Specific Activity (nmol substrate sulfated/min/mg purified enzyme) [4] | Specific Activity (nmol substrate sulfated/min/mg purified enzyme) [6] | Specific Activity (nmol substrate sulfated/min/mg purified enzyme) [5, 7] |
| --- | --- | --- | --- | --- | --- | --- | --- | --- | --- |
| 14.90 ± 0.15 nmol/min/mg | O=C1C[C@@H](c2ccc(O)cc2)Oc2cc(O)cc(O)c21 [Naringenin] | 17.51 ± 0.31 nmol/min/mg | 252.86 ± 13.22 pmol/min/mg | 354.21 ± 13.98 pmol/min/mg | 135.32 ± 15.67 pmol/min/mg | 156.97 ± 17.94 pmol/min/mg | 24.85 ± 0.65 nmol/min/mg | 11.99 ± 0.17 nmol/min/mg | – |
| – | COc1ccc([C@@H]2CC(=O)c3c(O)cc(O)cc3O2)cc1O [Hesperetin] | 28.16 ± 0.38 nmol/min/mg | 458.26 ± 11.82 pmol/min/mg | 643.61 ± 45.12 pmol/min/mg | 139.79 ± 6.87 pmol/min/mg | 181.73 ± 13.25 pmol/min/mg | 44.17 ± 1.16 nmol/min/mg | 13.34 ± 0.49 nmol/min/mg | 29.80 ± 0.74 nmol/min/mg |
| – | O=c1cc(-c2ccc(O)cc2)oc2cc(O)cc(O)c12 [Apigenin] | 7.90 ± 0.32 nmol/min/mg | 88.59 ± 1.07 pmol/min/mg | 113.24 ± 0.32 pmol/min/mg | 20.87 ± 5.39 pmol/min/mg | 25.04 ± 2.20 pmol/min/mg | 10.67 ± 0.99 nmol/min/mg | 3.58 ± 0.09 nmol/min/mg | 6.38 ± 0.40 nmol/min/mg |
